The supplement of paper PMC3937590

Columns and labels:
Assay in all cases: -log10 GI50 (growth inhibition 50%) (-log10(M)); higher = more potent growth inhibition
CAL120 = system: CAL120
Method in brief: (§1)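 Breast cancer cell lines were exposed to each compound for 72 hours at nine doses in 1:5 serial dilution, in triplicate, with a luminescence read-out against a time-zero plate. A Gompertz curve was fitted to the dose-response data by nonlinear least squares. The value is minus log10 of GI50, the molar concentration giving the set level of growth inhibition. Values equal to the top dose carry a < qualifier.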

CAL148 = system: CAL148
Method in brief: as §1

CAL851 = system: CAL851
Method in brief: as §1

EFM192A = system: EFM192A
Method in brief: as §1

EFM192B = system: EFM192B
Method in brief: as §1

EFM192C = system: EFM192C
Method in brief: as §1

EFM19 = system: EFM19
Method in brief: as §1

JIMT1 = system: JIMT1
Method in brief: as §1

SUM44PE = system: SUM44PE
Method in brief: as §1

21PT = system: 21PT
Method in brief: as §1

CC(=O)NCC(=O)N1[C@@H]2CC[C@H]1c1ccc(Nc3ncc(C(F)(F)F)c(NC4CCC4)n3)cc12
-log10 GI50 (CAL120): 5.76
-log10 GI50 (CAL148): 7.04
-log10 GI50 (CAL851): 5.04
-log10 GI50 (EFM192A): 5.09
-log10 GI50 (EFM192B): 5.28
-log10 GI50 (EFM192C): 5.07
-log10 GI50 (EFM19): 5.63
-log10 GI50 (JIMT1): 5.41

CC(=O)Nc1cccc(-n2c(=O)n(C3CC3)c(=O)c3c(Nc4ccc(I)cc4F)n(C)c(=O)c(C)c32)c1
-log10 GI50 (SUM44PE): 6.91

CCC[C@H](N[C@H]1CCc2cc(F)cc(F)c2C1)C(=O)Nc1cn(C(C)(C)CNCC(C)(C)C)cn1
-log10 GI50 (CAL120): 4.76
-log10 GI50 (CAL148): 4.91
-log10 GI50 (CAL851): 5.29
-log10 GI50 (EFM192A): 4.58
-log10 GI50 (EFM192B): 4.8
-log10 GI50 (EFM192C): 4.46
-log10 GI50 (EFM19): 4.79
-log10 GI50 (JIMT1): 4.7

COc1ccc(-c2cc3c(C)nc(N)nc3n([C@H]3CC[C@H](OCCO)CC3)c2=O)cn1
-log10 GI50 (CAL120): 6.05
-log10 GI50 (CAL148): 6.35
-log10 GI50 (CAL851): 7.4
-log10 GI50 (EFM192A): 6.92
-log10 GI50 (EFM192B): 6.73
-log10 GI50 (EFM19): 7.42
-log10 GI50 (JIMT1): 6.46

Cn1ncc(Cl)c1-c1cc(C(=O)N[C@H](CN)Cc2ccc(F)c(F)c2)oc1Cl
-log10 GI50 (21PT): 5.03
-log10 GI50 (CAL120): 5.13
-log10 GI50 (CAL148): 8.06
-log10 GI50 (CAL851): 5.12
-log10 GI50 (EFM192A): 7.53
-log10 GI50 (EFM192B): 6.63
-log10 GI50 (EFM19): 7.42
-log10 GI50 (JIMT1): 5.74

C=CCNC1=C2C[C@@H](C)C[C@H](OC)[C@H](O)[C@@H](C)/C=C(\C)[C@H](OC(N)=O)[C@@H](OC)/C=C\C=C(/C)C(=O)NC(=CC1=O)C2=O [17-AAG]
-log10 GI50 (SUM44PE): 8.84

CO[C@H]1C[C@@H]2CC[C@@H](C)[C@@](O)(O2)C(=O)C(=O)N2CCCC[C@H]2C(=O)O[C@H]([C@H](C)C[C@@H]2CC[C@@H](O)[C@H](OC)C2)CC(=O)[C@H](C)/C=C(\C)[C@@H](O)[C@@H](OC)C(=O)[C@H](C)C[C@H](C)/C=C/C=C/C=C/1C [Rapamycin]
-log10 GI50 (SUM44PE): 9.26

CC/C(=C(\c1ccccc1)c1ccc(OCCN(C)C)cc1)c1ccccc1 [Tamoxifen]
-log10 GI50 (SUM44PE): 7.03

CC[C@@]1(O)C(=O)OCc2c1cc1n(c2=O)Cc2cc3c(CN(C)C)c(O)ccc3nc2-1 [Topotecan]
-log10 GI50 (SUM44PE): 6.43
